According to the supplement of paper PMC10307832:

Columns and labels:
Assay in all cases: relative viability (nuclei count vs DMSO), 5 days (fraction); higher = more cells survive
[1] = compound: CC1=CC(=NN1)NC2=CC(=NC(=N2)/C=C/C3=CC=CC=C3)N4CCN(CC4)C + C[C@]1(O)C[C@@H](c2nc(-c3ccc4ccc(-c5ccccc5)nc4c3)c3c(N)nccn32)C1 [Linsitinib] (partner 1 µM)
Summary of the method: (§1)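 Relative viability equals treated-well nuclei counts divided by vehicle-well nuclei counts. Counts came from 4× images of lung cancer cell lines grown in 1536-well plates for 5 days after pin-tool dosing on the day after seeding. Dosing used one drug alone or a fixed anchor-drug dose plus five library-drug doses (not always all listed) in √10 steps, and values are medians of duplicate plates.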

Obatoclax + Foretinib = compound: COC1=CC(c2cc3ccccc3[nH]2)=N/C1=C\c1[nH]c(C)cc1C [Obatoclax] + COc1cc2c(Oc3ccc(NC(=O)C4(C(=O)Nc5ccc(F)cc5)CC4)cc3F)ccnc2cc1OCCCN1CCOCC1 [Foretinib] (partner 0.25 µM)
Summary of the method: as §1

Obatoclax + Dasatinib = compound: COC1=CC(c2cc3ccccc3[nH]2)=N/C1=C\c1[nH]c(C)cc1C [Obatoclax] + Cc1nc(Nc2ncc(C(=O)Nc3c(C)cccc3Cl)s2)cc(N2CCN(CCO)CC2)n1 [Dasatinib] (partner 0.075 µM)
Summary of the method: as §1

Obatoclax + Phenformin = compound: COC1=CC(c2cc3ccccc3[nH]2)=N/C1=C\c1[nH]c(C)cc1C [Obatoclax] + N=C(N)NC(=N)NCCc1ccccc1 [Phenformin] (partner 250 µM)
Summary of the method: as §1

| Cell Line | relative viability ([1]; first compound 0.08 µM) | relative viability ([1]; first compound 0.253 µM) | relative viability ([1]; first compound 0.8 µM) | relative viability ([1]; first compound 2.53 µM) | relative viability ([1]; first compound 8 µM) | relative viability (Obatoclax + Foretinib; first compound 0.01 µM) | relative viability (Obatoclax + Foretinib; first compound 0.03162 µM) | relative viability (Obatoclax + Foretinib; first compound 0.3162 µM) | relative viability (Obatoclax + Foretinib; first compound 1 µM) | relative viability (Obatoclax + Dasatinib; first compound 0.01 µM) | relative viability (Obatoclax + Dasatinib; first compound 0.03162 µM) | relative viability (Obatoclax + Dasatinib; first compound 0.3162 µM) | relative viability (Obatoclax + Dasatinib; first compound 1 µM) | relative viability (Obatoclax + Phenformin; first compound 0.01 µM) | relative viability (Obatoclax + Phenformin; first compound 0.03162 µM) | relative viability (Obatoclax + Phenformin; first compound 0.3162 µM) | relative viability (Obatoclax + Phenformin; first compound 1 µM) | relative viability (Obatoclax + Foretinib; first compound 0.1 µM) | relative viability (Obatoclax + Dasatinib; first compound 0.1 µM) | relative viability (Obatoclax + Phenformin; first compound 0.1 µM) |
| --- | --- | --- | --- | --- | --- | --- | --- | --- | --- | --- | --- | --- | --- | --- | --- | --- | --- | --- | --- | --- |
| NCI-H2405 | 0.951 | 0.674 | 1.06 | 0.499 | 0.164 | 1.09 | 1.06 | 1.07 | 1.13 | 0.218 | 0.197 | 0.205 | 0.22 | 0.411 | 0.394 | 0.402 | 0.411 | – | – | – |
| NCI-H3122 | 1.01 | 0.944 | 0.999 | 0.884 | 0.77 | 0.97 | 0.783 | 0.925 | 0.947 | 0.925 | 0.843 | 0.674 | 0.766 | 0.385 | 0.404 | 0.386 | 0.351 | 0.912 | 0.798 | 0.317 |
| PC-3 [JPC-3] | 1.01 | 1.02 | 0.918 | 0.95 | 0.814 | 1 | 1.03 | 1.01 | 0.916 | 0.963 | 1.02 | 1.01 | 0.943 | 0.477 | 0.486 | 0.473 | 0.489 | 1.01 | 1.01 | 0.511 |
| PC-14 | 0.906 | 1.01 | 0.892 | 0.77 | 0.107 | 0.858 | 0.945 | 0.872 | 0.661 | 0.285 | 0.286 | 0.0723 | 0.0415 | 0.551 | 0.612 | 0.425 | 0.281 | 0.917 | 0.225 | 0.308 |
| RERF-LC-KJ | 0.817 | 0.863 | 0.792 | 0.604 | 0.216 | 0.823 | 0.883 | 0.792 | 0.844 | 0.796 | 0.894 | 0.745 | 0.513 | 0.37 | 0.441 | 0.45 | 0.434 | 0.862 | 0.701 | 0.459 |
| SK-LU-1 | 0.93 | 1.18 | 0.84 | 0.238 | 0.142 | 0.775 | 0.855 | 0.409 | 0.357 | 0.184 | 0.19 | 0.157 | 0.141 | 0.587 | 0.507 | 0.246 | 0.244 | 0.804 | 0.141 | 0.414 |
| SK-MES-1 | 1.06 | 1.04 | 0.939 | 0.796 | 0.146 | 0.935 | 1.03 | 0.833 | 0.867 | 0.356 | 0.48 | 0.362 | 0.267 | 0.642 | 0.704 | 0.361 | 0.273 | 0.831 | 0.394 | 0.558 |
| SW 1573 | 0.737 | 0.78 | 0.607 | 0.502 | 0.124 | 0.866 | 0.732 | 0.81 | 0.6 | 0.413 | 0.454 | 0.134 | 0.136 | 0.333 | 0.31 | 0.24 | 0.153 | 0.816 | 0.53 | 0.282 |
| UMC-11 | 0.937 | 1.03 | 0.934 | 0.508 | 0.133 | 1.07 | 1.08 | 0.716 | 0.382 | 0.443 | 0.529 | 0.372 | 0.278 | 0.303 | 0.294 | 0.272 | 0.242 | 1.05 | 0.468 | 0.291 |
